Reference: patent publication US6737383B1, “Herbicidal oxadiazolidines” (priority 1999, dated 2004)

Columns and labels:
[1] = tested on: bedstraw; experiment: Test B pre/postemergence bedstraw; type: in vivo, Galium aparine
Outline: (§1)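 Test chemicals in a non-phytotoxic solvent mixture with surfactant were sprayed preemergence onto planted seeds and postemergence onto plants 2 to 18 cm tall (1- to 4-leaf stage). After twelve to sixteen days in a greenhouse, injury was visually rated against untreated controls from 0 (no effect) to 10 (complete control).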

[2] = tested on: blackgrass; experiment: Test B pre/postemergence blackgrass; type: in vivo, Alopecurus myosuroides
Outline: as §1

[3] = tested on: surinam grass; experiment: Test B pre/postemergence surinam grass; type: in vivo, Brachiaria decumbens
Outline: as §1

[4] = tested on: cocklebur; experiment: Test B pre/postemergence cocklebur; type: in vivo, Xanthium strumarium
Outline: as §1

[5] = tested on: corn; experiment: Test B pre/postemergence corn; type: in vivo, Zea mays
Outline: as §1

[6] = tested on: crabgrass; experiment: Test B pre/postemergence crabgrass; type: in vivo, Digitaria sanguinalis
Outline: as §1

[7] = tested on: giant foxtail; experiment: Test B pre/postemergence giant foxtail; type: in vivo, Setaria faberii
Outline: as §1

[8] = tested on: pigweed; experiment: Test B pre/postemergence pigweed; type: in vivo, Amaranthus retroflexus
Outline: as §1

[9] = tested on: soybean; experiment: Test B pre/postemergence soybean; type: in vivo, Glycine max
Outline: as §1

[10] = tested on: sugar beet; experiment: Test B pre/postemergence sugar beet; type: in vivo, Beta vulgaris
Outline: as §1

[11] = tested on: velvetleaf; experiment: Test B pre/postemergence velvetleaf; type: in vivo, Abutilon theophrasti
Outline: as §1

[12] = tested on: wheat; experiment: Test B pre/postemergence wheat; type: in vivo, Triticum aestivum
Outline: as §1

[13] = tested on: wild oat; experiment: Test B pre/postemergence wild oat; type: in vivo, Avena fatua
Outline: as §1

[14] = tested on: purple nutsedge; experiment: Test B pre/postemergence purple nutsedge; type: in vivo, Cyperus rotundus
Outline: as §1

[15] = tested on: rice; experiment: Test B flood test rice; type: in vivo, Oryza sativa
Outline: (§2)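 Flood test on plants grown to the 2-leaf stage; treated plants kept in greenhouse twelve to sixteen days, then visually rated against controls on a 0 (no effect) to 10 (complete control) scale.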

[16] = tested on: duck salad; experiment: Test B flood test duck salad; type: in vivo, Heteranthera limosa
Outline: as §2

[17] = Preemergence, Rate 62 g/ha, scale of 0 to 10 where 0 is no effect and 10 is complete control
[18] = Preemergence, Rate 125 g/ha, 0 is no effect, 10 is complete control
[19] = Preemergence, Rate 250 g/ha, scale 0 to 10, 0 is no effect, 10 is complete control
[20] = Preemergence, Rate 500 g/ha, scale 0 to 10 (0 no effect, 10 complete control)
[21] = Rate 62 g/ha, Postemergence, scale of 0 to 10 where 0 is no effect and 10 is complete control
[22] = Rate 125 g/ha, Postemergence, scale 0 to 10
[23] = Rate 500 g/ha, Postemergence, scale 0 to 10
[24] = Rate 1000 g/ha, Preemergence, scale 0 to 10 (0 no effect, 10 complete control)
[25] = Rate 2000 g/ha, Preemergence, scale 0 to 10
[26] = Postemergence, Rate 1000 g/ha, scale 0 to 10 (0 no effect, 10 complete control)
[27] = Rate 2000 g/ha, Postemergence, scale 0 to 10
[28] = Rate 62 g/ha, headed Pre-emergence (flood test species), scale 0 to 10 (0 no effect, 10 complete control)
[29] = Rate 125 g/ha, Pre-emergence, flood test species, scale 0 to 10 where 0 is no effect and 10 is complete control
[30] = Rate 250 g/ha, Pre-emergence, flood-test species, scale 0 to 10, 0 is no effect, 10 is complete control
[31] = Rate 500 g/ha, headed Pre-emergence (flood test species), scale 0 to 10 (0 no effect, 10 complete control)
[32] = Rate 1000 g/ha, Pre-emergence (as headed), scale 0 to 10
[33] = Rate 2000 g/ha, Pre-emergence (as headed), scale 0 to 10

CCN(C(=O)n1oc(=O)n(N(C)c2ccccc2)c1=O)C1CCCCC1 [Compound 183]
Bedstraw plant response rating [1, 17]: 0 | Bedstraw plant response rating (0 to 10 scale) [1, 18]: 0 | Bedstraw plant response rating [1, 19]: 0 | Bedstraw plant response rating [1, 20]: 7 | Bedstraw plant response rating [1, 21]: 0 | Bedstraw plant response rating [1, 22]: 0 | Plant response rating (0 to 10; 0 is no effect, 10 is complete control), Bedstraw ([1]; Rate 250 g/ha, Postemergence): 7 | Bedstraw plant response rating [1, 23]: 3 | Plant response rating, Bedstraw [1, 24]: 7 | Bedstraw plant response rating [1, 25]: 10 | Blackgrass plant response rating [2, 26]: 0 | Blackgrass plant response rating [2, 17]: 0 | Blackgrass plant response rating (0 to 10 scale) [2, 18]: 0 | Blackgrass plant response rating [2, 19]: 0 | Blackgrass plant response rating [2, 20]: 0 | Blackgrass plant response rating [2, 21]: 0 | Blackgrass plant response rating [2, 22]: 0 | Plant response rating (0 to 10; 0 is no effect, 10 is complete control), Blackgrass ([2]; Rate 250 g/ha, Postemergence): 0 | Blackgrass plant response rating [2, 23]: 0 | Plant response rating, Blackgrass [2, 24]: 1 | Blackgrass plant response rating [2, 27]: 0 | Blackgrass plant response rating [2, 25]: 2 | B. signalgrass plant response rating [3, 26]: 0 | B. signalgrass plant response rating [3, 17]: 0 | B. signalgrass plant response rating (0 to 10 scale) [3, 18]: 0 | B. signalgrass plant response rating [3, 19]: 4 | B. signalgrass plant response rating [3, 20]: 4 | B. signalgrass plant response rating [3, 21]: 0 | B. signalgrass plant response rating ([3]; Rate 125 g/ha, Postemergence, scale 0 (no effect) to 10 (complete control)): 0 | Plant response rating, B. signalgrass ([3]; Rate 250 g/ha, Postemergence, scale 0 to 10, 0 is no effect, 10 is complete control): 0 | B. signalgrass plant response rating ([3]; Rate 500 g/ha, Postemergence, scale 0 to 10, 0 no effect, 10 complete control): 0 | Plant response rating, B. signalgrass [3, 24]: 0 | B. signalgrass plant response rating [3, 27]: 0 | B. signalgrass plant response rating [3, 25]: 2 | Cocklebur plant response rating [4, 26]: 0 | Cocklebur plant response rating [4, 17]: 0 | Cocklebur plant response rating (0 to 10 scale) [4, 18]: 0 | Cocklebur plant response rating [4, 19]: 0 | Cocklebur plant response rating [4, 20]: 0 | Cocklebur plant response rating [4, 21]: 0 | Cocklebur plant response rating [4, 22]: 0 | Plant response rating (0 to 10; 0 is no effect, 10 is complete control), Cocklebur ([4]; Rate 250 g/ha, Postemergence): 0 | Cocklebur plant response rating [4, 23]: 0 | Plant response rating, Cocklebur [4, 24]: 0 | Cocklebur plant response rating [4, 27]: 2 | Cocklebur plant response rating [4, 25]: 0 | Corn plant response rating [5, 26]: 0 | Corn plant response rating [5, 17]: 0 | Corn plant response rating (0 to 10 scale) [5, 18]: 0 | Corn plant response rating [5, 19]: 0 | Corn plant response rating [5, 20]: 0 | Corn plant response rating [5, 21]: 0 | Corn plant response rating [5, 22]: 0 | Plant response rating (0 to 10; 0 is no effect, 10 is complete control), Corn ([5]; Rate 250 g/ha, Postemergence): 0 | Corn plant response rating [5, 23]: 0 | Plant response rating, Corn [5, 24]: 0 | Corn plant response rating [5, 27]: 0 | Corn plant response rating [5, 25]: 0 | Crabgrass plant response rating [6, 26]: 0 | Crabgrass plant response rating [6, 17]: 0 | Crabgrass plant response rating (0 to 10 scale) [6, 18]: 0 | Crabgrass plant response rating [6, 19]: 0 | Crabgrass plant response rating [6, 20]: 3 | Crabgrass plant response rating [6, 21]: 0 | Crabgrass plant response rating [6, 22]: 0 | Plant response rating (0 to 10; 0 is no effect, 10 is complete control), Crabgrass ([6]; Rate 250 g/ha, Postemergence): 0 | Crabgrass plant response rating [6, 23]: 0 | Plant response rating, Crabgrass [6, 24]: 0 | Crabgrass plant response rating [6, 27]: 0 | Crabgrass plant response rating [6, 25]: 2 | Giant foxtail plant response rating [7, 26]: 0 | Giant foxtail plant response rating [7, 17]: 0 | Giant foxtail plant response rating (0 to 10 scale) [7, 18]: 0 | Giant foxtail plant response rating [7, 19]: 0 | Giant foxtail plant response rating [7, 20]: 3 | Giant foxtail plant response rating [7, 21]: 0 | Giant foxtail plant response rating [7, 22]: 0 | Plant response rating (0 to 10; 0 is no effect, 10 is complete control), Giant foxtail ([7]; Rate 250 g/ha, Postemergence): 0 | Giant foxtail plant response rating [7, 23]: 0 | Plant response rating, Giant foxtail [7, 24]: 6 | Giant foxtail plant response rating [7, 27]: 0 | Giant foxtail plant response rating [7, 25]: 9 | Redroot pigweed plant response rating [8, 26]: 0 | Redroot pigweed plant response rating [8, 17]: 0 | Redroot pigweed plant response rating (0 to 10 scale) [8, 18]: 0 | Redroot pigweed plant response rating [8, 19]: 0 | Redroot pigweed plant response rating [8, 20]: 0 | Redroot pigweed plant response rating [8, 21]: 0 | Redroot pigweed plant response rating [8, 22]: 0 | Plant response rating (0 to 10; 0 is no effect, 10 is complete control), Redroot pigweed ([8]; Rate 250 g/ha, Postemergence): 0 | Redroot pigweed plant response rating [8, 23]: 0 | Plant response rating, Redroot pigweed [8, 24]: 0 | Redroot pigweed plant response rating [8, 27]: 0 | Redroot pigweed plant response rating [8, 25]: 0 | Soybean plant response rating [9, 26]: 2 | Soybean plant response rating [9, 17]: 0 | Soybean plant response rating (0 to 10 scale) [9, 18]: 0 | Soybean plant response rating [9, 19]: 0 | Soybean plant response rating [9, 20]: 0 | Soybean plant response rating [9, 21]: 0 | Soybean plant response rating [9, 22]: 1 | Plant response rating (0 to 10; 0 is no effect, 10 is complete control), Soybean ([9]; Rate 250 g/ha, Postemergence): 2 | Soybean plant response rating [9, 23]: 2 | Plant response rating, Soybean [9, 24]: 0 | Soybean plant response rating [9, 27]: 3 | Soybean plant response rating [9, 25]: 0 | Sugarbeets plant response rating [10, 26]: 0 | Sugarbeets plant response rating [10, 17]: 0 | Sugarbeets plant response rating (0 to 10 scale) [10, 18]: 0 | Sugarbeets plant response rating [10, 19]: 0 | Sugarbeets plant response rating [10, 20]: 0 | Sugarbeets plant response rating [10, 21]: 0 | Sugarbeets plant response rating [10, 22]: 0 | Plant response rating (0 to 10; 0 is no effect, 10 is complete control), Sugarbeets ([10]; Rate 250 g/ha, Postemergence): 0 | Sugarbeets plant response rating [10, 23]: 0 | Plant response rating, Sugarbeets [10, 24]: 0 | Sugarbeets plant response rating [10, 27]: 0 | Sugarbeets plant response rating [10, 25]: 0 | Velvetleaf plant response rating [11, 26]: 1 | Velvetleaf plant response rating [11, 17]: 0 | Velvetleaf plant response rating [11, 19]: 0 | Velvetleaf plant response rating [11, 20]: 0 | Velvetleaf plant response rating [11, 22]: 0 | Plant response rating (0 to 10; 0 is no effect, 10 is complete control), Velvetleaf ([11]; Rate 250 g/ha, Postemergence): 0 | Velvetleaf plant response rating [11, 23]: 0 | Plant response rating, Velvetleaf [11, 24]: 0 | Velvetleaf plant response rating [11, 27]: 1 | Velvetleaf plant response rating [11, 25]: 0 | Wheat plant response rating [12, 26]: 0 | Wheat plant response rating [12, 17]: 0 | Wheat plant response rating [12, 19]: 0 | Wheat plant response rating [12, 20]: 0 | Wheat plant response rating [12, 22]: 0 | Plant response rating (0 to 10; 0 is no effect, 10 is complete control), Wheat ([12]; Rate 250 g/ha, Postemergence): 0 | Wheat plant response rating [12, 23]: 0 | Plant response rating, Wheat [12, 24]: 0 | Wheat plant response rating [12, 27]: 0 | Wheat plant response rating [12, 25]: 0 | Wild oats plant response rating [13, 26]: 0 | Wild oats plant response rating [13, 17]: 0 | Wild oats plant response rating [13, 19]: 0 | Wild oats plant response rating [13, 20]: 0 | Wild oats plant response rating [13, 22]: 0 | Plant response rating (0 to 10; 0 is no effect, 10 is complete control), Wild oats ([13]; Rate 250 g/ha, Postemergence): 0 | Wild oats plant response rating [13, 23]: 0 | Plant response rating, Wild oats [13, 24]: 0 | Wild oats plant response rating [13, 27]: 0 | Wild oats plant response rating [13, 25]: 3 | Nutsedge plant response rating [14, 26]: 0 | Nutsedge plant response rating [14, 17]: 0 | Nutsedge plant response rating (0 to 10 scale) [14, 18]: 0 | Nutsedge plant response rating [14, 19]: 0 | Nutsedge plant response rating [14, 20]: 0 | Nutsedge plant response rating [14, 21]: 0 | Nutsedge plant response rating [14, 22]: 0 | Plant response rating (0 to 10; 0 is no effect, 10 is complete control), Nutsedge ([14]; Rate 250 g/ha, Postemergence): 0 | Nutsedge plant response rating [14, 23]: 0 | Plant response rating, Nutsedge [14, 24]: 0 | Nutsedge plant response rating [14, 27]: 0 | Nutsedge plant response rating [14, 25]: 0 | Rice plant response rating [15, 28]: 0 | Rice plant response rating [15, 29]: 0 | Rice plant response rating [15, 30]: 0 | Plant response rating, Rice [15, 31]: 0 | Rice plant response rating [15, 32]: 0 | Rice plant response rating [15, 33]: 0 | Ducksalad plant response rating [16, 28]: 0 | Ducksalad plant response rating [16, 29]: 0 | Ducksalad plant response rating [16, 30]: 0 | Plant response rating, Ducksalad [16, 31]: 0 | Ducksalad plant response rating [16, 32]: 0 | Ducksalad plant response rating [16, 33]: 0
